Data on four molecules can be found in publication PMC12016938, “A small molecule PKCε inhibitor reduces hyperalgesia induced by paclitaxel or opioid withdrawal” (JCI Insight, 2025).

As usually defined, the half-life is the time in which the quantity being followed falls by half. A word on the EC50: it is the concentration needed to bring the measured effect to its halfway point. The low end stands for an effect from little substance, the high end for a need for much substance.

Each structure is given as a SMILES string. Values joined by “and” are separate entries in the source; they are usually repeats but may differ in a detail not shown here. Equal values may be shown once. Read-outs that look alike come from different tables or passages of the source.

Series [1] is described as follows: Plasma protein binding, equilibrium dialysis (RED). The class given is in vitro ADME, human. The following applies: for % Recovery / recovery at 4 h, 10 µM: PBS + Plasma relative to starting concentration of 10 uM. As for the experimental part:
Plasma protein binding. Binding of CP612 to human plasma proteins was measured by equilibrium dialysis using a Rapid Equilibrium Dialysis (RED) Device (Thermo Fisher Scientific). The device uses plates with wells preloaded with equilibrium dialysis membrane inserts, each of which includes 2 side-by-side chambers separated by a dialysis membrane. […] All compounds were tested in triplicate. […] A total of 200 μL of diluted test compound was then added to the plasma chambers of triplicate wells of a 48-sample RED plate (Thermo Fisher Scientific). In total, 400 μL of 0.1M PBS buffer were added to each buffer chamber. The plate was sealed with adhesive foil and incubated at 37°C with shaking for 4 hours, after which 30 μL were removed from each chamber and diluted with either 30 μL of plasma (for buffer chamber samples) or 30 μL of 0.1M PBS (for plasma chamber samples). Samples were extracted with 3 volumes of acetonitrile, centrifuged at 16,000g at 4°C for 10 minutes, and analyzed by LC-MS to calculate the amount of drug in each chamber. The percentage of free compound was calculated as the concentration in the buffer chamber/concentration in the plasma chamber × 100%. The percentage of protein-bound compound was calculated as 100% – the percentage of free compound.
(In equilibrium dialysis free small molecules cross a membrane that holds back macromolecules.)

The nature of series [2]: Microsomal clearance. The following applies: for half-life at 8.5 μM: both, human, microsomes; for % Absolute: human liver microsomes (HLM). As for the experimental part:
Microsomal clearance. To determine if CP612 was a likely substrate for first-pass hepatic metabolism, we measured the stability of CP612 in the presence of human liver microsomes (BioIVT) pooled from over 100 male and female individuals. […] Test compounds were diluted to 10 μM in 0.1M PBS, and then 51 μL were dispensed in quadruplicate into wells of a 96-well plate, which was shaken at 600 rpm at 37°C. Reactions were initiated by adding 1.5 μL of microsomes (20 mg/mL) to the wells and 3 minutes later adding 7.5 μL of 8 mM NADPH (1 mM final concentration). Samples incubated without NADPH were used as negative controls.
In general terms: Liver microsomes are a subcellular fraction often used to study metabolism.

Series [3] addresses T1, PKCε (Homo sapiens, UniProt Q02156).
T1 sequence (Q02156 1-737): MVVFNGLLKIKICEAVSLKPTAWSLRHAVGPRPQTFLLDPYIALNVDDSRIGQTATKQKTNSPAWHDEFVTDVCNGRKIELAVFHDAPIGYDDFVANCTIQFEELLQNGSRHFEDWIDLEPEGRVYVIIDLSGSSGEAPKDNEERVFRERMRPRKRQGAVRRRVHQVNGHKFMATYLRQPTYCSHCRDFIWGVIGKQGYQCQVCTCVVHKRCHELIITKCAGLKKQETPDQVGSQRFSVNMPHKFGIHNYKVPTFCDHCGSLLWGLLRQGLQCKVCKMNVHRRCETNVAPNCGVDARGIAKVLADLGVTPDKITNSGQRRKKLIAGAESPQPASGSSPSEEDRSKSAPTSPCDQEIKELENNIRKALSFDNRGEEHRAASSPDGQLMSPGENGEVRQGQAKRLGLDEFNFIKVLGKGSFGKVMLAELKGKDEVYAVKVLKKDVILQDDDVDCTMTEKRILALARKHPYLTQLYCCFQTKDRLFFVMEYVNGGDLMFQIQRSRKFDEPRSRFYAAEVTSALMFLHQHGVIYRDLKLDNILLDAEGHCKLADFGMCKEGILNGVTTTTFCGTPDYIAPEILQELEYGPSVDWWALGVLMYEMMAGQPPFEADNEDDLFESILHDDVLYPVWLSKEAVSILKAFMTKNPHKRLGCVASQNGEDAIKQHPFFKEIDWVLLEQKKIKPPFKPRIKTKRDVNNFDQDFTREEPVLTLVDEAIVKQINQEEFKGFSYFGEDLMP
Briefly: PKCε activity with increasing ATP and CP612 (ATP competition). The series is classed as biochemical. Further details: His; AVI; made in house; host or cells: Sf9 cells. The following applies: without CP612; 95% CI 2.23–7.61 μM. As for the experimental part:
Therefore, we assayed PKCε activity with increasing concentrations of ATP and in the presence of increasing concentrations of CP612.
Kinase assays. CP612 was assayed against His-AVI–tagged human PKCε (1 nM) produced in Sf9 cells, and ROCK1 (Carna Biosciences; 5 nM) using the Lance-FRET kinase assay system (PerkinElmer Revvity). Other human recombinant PKCs (SignalChem Biotech) were assayed in triplicate at the following concentrations: PKCβII 1.6 nM, PKCγ 500 pM, PKCδ 5 nM, PKCθ 500 pM, and PKCζ 500 pM. PKCs were incubated in a 15 μL reaction volume with kinase buffer (20 mM Tris-HCL [pH 7.4], 10 mM MgCl2, 0.25 mM EGTA, 0.1 mg/mL BSA, and 0.15% Triton X-100), 50 nM ULight-labeled CREBtide […] (PerkinElmer, TRF0107, Revvity), and test compound. […] after 60 minutes with 10 μL of 2.5× Stop Solution/Detection Mix containing 20 mM EDTA and 4 nM LANCE Ultra Europium anti–phospho-[…] peptide antibody (PerkinElmer, TRF0200, Revvity). After incubation at 27°C for another 60 minutes, phosphorylation was detected using a FlexStation 3 Microplate Reader (Molecular Devices) in LANCE TR-FRET mode (excitation = 340 nm, emission = 665 nm) and expressed as relative fluorescence units (RFU). The percentage of inhibition was calculated as: (signal without test compound − signal with test compound)/(signal without test compound − signal without ATP) × 100. The Z’ factor for this assay ranged between 0.72 and 0.86.

A short description of series [4]: Plasma stability. Particulars: for % Absolute: human plasma (hPL); for half-life: human.
Procedure: Plasma stability. To determine in vitro plasma stability, we calculated in vitro plasma half-life. We incubated test substances (0.6 μL) with 60 μL human plasma (BioIVT) in quadruplicate at 37°C.
The mark [5] stands for this setting: (Corrected concentration in PBS / Corrected concentration in Plasma) * 100, individual replicates.
Setting [6] is: human, individual replicates, read-out: % Recovery.
Where [7] appears, read: human, mean of replicates, read-out: % Recovery, Mean.
[8] abbreviates: time 0 min, individual replicates.
The mark [9] stands for this setting: time 15 min, individual replicates.
[10] abbreviates: time 30 min, individual replicates.
[11] abbreviates: time 60 min, individual replicates.

`C[C@]12CC[C@H]3[C@@H](CCC4=CC(=O)CC[C@@]43C)[C@@H]1CC[C@@H]2O` [Testosterone]: the “% Free” value in series [1] (setting [5]) is 6.33% and 6.14%. Also, the “% Recovery” value in series [1] (individual replicates) is 74.81% and 77.04%. In series [1] (PBS compartment, relative to starting concentration of 10 uM, individual replicates), the “% Absolute (Sample_PBS)” value is 4.21% and 4.46% and 4.45%. Also, the fraction unbound at 4 h, 10 μM was 0.0593 in series [1] (human plasma, individual replicates, read-out: % Bound (converted)); 0.0593 in series [1] (human, plasma, (Corrected concentration in PBS / Corrected concentration in Plasma) * 100, individual replicates, read-out: % Free); 0.0613 in series [1] (human, plasma, human plasma, 37°C, 4 hours, read-out: Plasma protein binding (% bound) (converted)); 0.0613 in series [1] (human, plasma, mean of replicates, read-out: % Bound, Mean (converted)); 0.0613 in series [1] (human, plasma, mean of replicates, read-out: % Free, Mean). In addition, the recovery at 4 h, 10 µM was 75.2% in series [1] (setting [6]) and 75.7% in series [1] (setting [7]). Also, the “% Bound” value in series [1] (individual replicates) is 93.67% and 93.86%. Besides, the “% Absolute (Sample_Plasma)” value in series [1] (plasma compartment, relative to starting concentration of 10 uM, individual replicates) is 70.98% and 70.35% and 72.59%. In addition, the “t1/2 (half life)” value in series [2] (HLM, individual replicates, time axis in min) is 14.3079 and 11.3615 and 11.8498. The half-life at 8.5 μM in series [2] (Microsomal clearance t½ (min), human liver microsomes, NADPH) came out at 12.7 ± 1.37 min; in series [2] (t1/2 (half life), HLM, individual replicates, time axis in min), 13.4 min; in series [2] (t1/2 (half life), Mean, HLM, mean of replicates, time axis in min), 12.7 min. The “% Absolute” value in series [2] (setting [8]) is 122.56% and 99.88% and 106.38% and 105.61%; in series [2] (time 5 min, individual replicates) it was 82.74% and 96.20% and 86.80% and 92.26%; in series [2] (setting [9]), 59.56% and 70.78%; in series [2] (setting [10]), 54.15% and 32.42% and 34.78% and 45.15%; in series [2] (time 60 min, -NADPH, individual replicates), 125.64% and 123.20% and 118.26% and 117.65%; in series [2] (setting [11]), 5.58% and 4.76% and 2.71% and 3.01%. Further, in series [2] (human liver microsomes, NADPH), the “Microsomal clearance Cl” value came out at 109.81 ± 11.69 µL/min.

The molecule `Nc1ncnc2c1ncn2[C@@H]1O[C@H](COP(=O)(O)OP(=O)(O)OP(=O)(O)O)[C@@H](O)[C@H]1O` [ATP] came in with an EC50 in series [3] of 4.2 µM.

For `COCCc1ccc(OCC(O)CNC(C)C)cc1` (stereo not shown) [Metoprolol, metoprolol], the “% Free” value in series [1] (setting [5]) is listed as 91.52%. For the same molecule, in series [1] (individual replicates), the “% Recovery” value was 70.00% and 78.51%; the “% Bound” value was 8.48% and 10.85%. Moreover, in series [1] (setting [6]), the recovery at 4 h, 10 µM was 66.7%. Besides, in series [1] (setting [7]), the recovery at 4 h, 10 µM came out at 71.8%.

Consider `CCN(CC)CCOC(=O)c1ccc(N)cc1` [Procaine, reference compound], for which the “% Absolute” value is 122.69% and 106.84% and 107.17% and 113.76% in series [4] (setting [8]); 0.17% and 0.32% and 0.18% in series [4] (setting [9]); 0.00% in series [4] (setting [10]); 0.00% in series [4] (setting [11]); 0.00% in series [4] (time 180 min, individual replicates). Besides, the “Plasma stability Cl” value in series [4] (human plasma, 37°C) stood at 25.29 ± 1.35 µL/min. Further, the “Cl (clearance)” value in series [4] (human plasma, individual replicates) was 26.280 and 23.303 and 25.557 and 26.005. In series [4] (human plasma, individual replicates, time axis in min, in min), the “t1/2 (half life)” value is 1.785 and 1.627 and 1.599. The half-life stood at 1.65 ± 0.09 min in series [4] (human plasma, Plasma stability t½ (min), 37°C); 1.65 min in series [4] (plasma, t1/2 (half life), Mean, human plasma, mean of replicates, time axis in min); 1.58 min in series [4] (plasma, t1/2 (half life), human plasma, individual replicates, time axis in min).
